Test results as given in US20210317092A1 (BAYER PHARMA AKTIENGESELLSCHAFT, priority 2016, published 2021).
Like-named read-outs stand apart in the source and are kept apart here.

Target: T1, human Bradykinin B1 receptor (Homo sapiens, UniProt P46663)
T1 construct: host or cells: CHO-K1
T1 sequence (P46663 1-353): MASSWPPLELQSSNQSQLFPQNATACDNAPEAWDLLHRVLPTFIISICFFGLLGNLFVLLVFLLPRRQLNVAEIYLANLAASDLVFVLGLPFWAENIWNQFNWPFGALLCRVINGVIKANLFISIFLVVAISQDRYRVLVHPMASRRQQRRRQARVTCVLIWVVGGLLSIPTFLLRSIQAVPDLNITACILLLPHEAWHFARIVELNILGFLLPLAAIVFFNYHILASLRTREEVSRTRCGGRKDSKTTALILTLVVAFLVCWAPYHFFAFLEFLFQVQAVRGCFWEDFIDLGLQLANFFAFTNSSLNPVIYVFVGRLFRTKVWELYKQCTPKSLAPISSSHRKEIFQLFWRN
Assay: Calcium flux Assay (FLIPR) with recombinant CHO-K1 cells expressing human Bradykinin B1 receptor, in presence (hB1 IC50) or absence (hB1 free IC50) of 0.1% BSA
Format: cell-based

[1] = in absence of 0.1% BSA, read-out: hB1 free IC50
[2] = in presence of 0.1% BSA, read-out: hB1 IC50

Structure (SMILES) | IC50 [1] | IC50 [2]
COc1cc(C2(C(=O)Nc3ccc(-c4ccnc(C(F)(F)F)c4)c(-c4nnn[nH]4)c3)CC2)ccc1F [Example 180, 1-(4-fluoro-3-methoxyphenyl)-N-{3-(1H-tetrazol-5-yl)-4-[2-(trifluoromethyl)pyridin-4-yl]phenyl} cyclopropane-carboxamide] | 768 nM | 
O=C(Nc1ccc(-c2ccnc(F)c2)c(-c2nnn[nH]2)c1)C1(c2cccc(Cl)c2)CC1 [Example 182, 1-(3-chlorophenyl)-N-[4-(2-fluoropyridin-4-yl)-3-(1H-tetrazol-5-yl)phenyl] cyclopropane-carboxamide] | 185 nM | 1350 nM
O=C(Nc1ccc(-c2cnc(NC3CC3)nc2)c(-c2nnn[nH]2)c1)C1(c2cccc(Cl)c2)CC1 [Example 185] | 251 nM | 
N#Cc1ccc(-c2ccc(NC(=O)C3(c4cccc(Cl)c4)CC3)cc2-c2nnn[nH]2)cc1F [Example 186, 1-(3-chlorophenyl)-N-[4′-cyano-3′-fluoro-2-(1H-tetrazol-5-yl)biphenyl-4-yl]cyclopropane carboxamide] | 252 nM | 
COc1ncccc1-c1ccc(NC(=O)C2(c3cccc(Cl)c3)CC2)cc1-c1nnn[nH]1 [Example 187, 1-(3-chlorophenyl)-N-[4-(2-methoxypyridin-3-yl)-3-(1H-tetrazol-5-yl)phenyl] cyclopropane-carboxamide] | 1620 nM | 
CO[C@H]1CC[C@@H](c2ccc(NC(=O)C3(c4cccc(Cl)c4F)CC3)cc2-c2nnn[nH]2)CC1 [Example 189, 1-(3-chloro-2-fluorophenyl)-N-[4-(cis-4-methoxy-cyclohexyl)-3-(1H-tetrazol-5-yl)phenyl] cyclopropane-carboxamide] | 2350 nM | 
Cc1ncc(-c2ccc(NC(=O)C3(c4cccc(Cl)c4)CC3)cc2-c2nnn[nH]2)cn1 [Example 194, 1-(3-chlorophenyl)-N-[4-(2-methylpyrimidin-5-yl)-3-(1H-tetrazol-5-yl)phenyl] cyclopropane-carboxamide] | 569 nM | 575 nM
Cc1ncc(-c2ccc(NC(=O)C3(c4cccc(Cl)c4F)CC3)cc2-c2nnn[nH]2)cn1 [Example 195, 1-(3-chloro-2-fluorophenyl)-N-[4-(2-methylpyrimidin-5-yl)-3-(1H-tetrazol-5-yl)phenyl] cyclopropane-carboxamide] | 183 nM | 311 nM
O=C(Nc1ccc(-c2cnc(C(F)(F)F)nc2)c(-c2nnn[nH]2)c1)C1(c2cccc(Cl)c2F)CC1 [Example 197, 1-(3-chloro-2-fluorophenyl)-N-{3-(1H-tetrazol-5-yl)-4-[2-(trifluoromethyl)pyrimidin-5-yl]phenyl} cyclopropane-carboxamide] | 493 nM | 993 nM
O=C(Nc1ccc(-c2cnc(C(F)(F)F)nc2)c(-c2nnn[nH]2)c1)C1(c2ccc(OC(F)(F)F)cc2)CC1 [Example 198, N-{3-(1H-tetrazol-5-yl)-4-[2-(trifluoromethyl)pyrimidin-5-yl]phenyl}-1-[4-(trifluoromethoxy)phenyl] cyclopropane-carboxamide] | 943 nM | 
COc1cc(-c2ccc(NC(=O)C3(c4cccc(Cl)c4)CC3)cc2-c2nnn[nH]2)cc(C(F)(F)F)n1 [Example 199, 1-(3-chlorophenyl)-N-{4-[2-methoxy-6-(trifluoromethyl)pyridin-4-yl]-3-(1H-tetrazol-5-yl)phenyl} cyclopropane-carboxamide] | 1580 nM | 2400 nM
CS(=O)(=O)c1ccc(-c2ccc(NC(=O)C3(c4cccc(Cl)c4)CC3)cc2-c2nnn[nH]2)cn1 [Example 200, 1-(3-chlorophenyl)-N-{4-[6-(methylsulfonyl)pyridin-3-yl]-3-(1H-tetrazol-5-yl)phenyl} cyclopropane-carboxamide] | 1170 nM | 
CS(=O)(=O)c1ccc(-c2ccc(NC(=O)C3(c4ccc(C(F)(F)F)cc4F)CC3)cc2-c2nnn[nH]2)cn1 [Example 201, 1-[2-fluoro-4-(trifluoromethyl)phenyl]-N-{4-[6-(methylsulfonyl)pyridin-3-yl]-3-(1H-tetrazol-5-yl)phenyl} cyclopropane-carboxamide] | 374 nM | 
O=C(Nc1ccc(-c2ccc(C(F)(F)F)nc2)c(-c2nnn[nH]2)c1)C1(c2ccc(F)cc2)CC1 [Example 204, 1-(4-fluorophenyl)-N-{3-(1H-tetrazol-5-yl)-4-[6-(trifluoromethyl)pyridin-3-yl]phenyl} cyclopropane-carboxamide] | 125 nM | 

More lines, now with the values ahead:

IC50 [1] | IC50 [2] | Structure (SMILES)
170 nM |  | O=C(Nc1ccc(-c2cnc(C(F)(F)F)nc2)c(-c2nnn[nH]2)c1)C1(c2ccc(C(F)(F)F)cc2)CC1 [Example 205, N-{3-(1H-tetrazol-5-yl)-4-[2-(trifluoromethyl)pyrimidin-5-yl]phenyl)-1-[4-(trifluoromethyl)phenyl] cyclopropane-carboxamide]
485 nM |  | O=C(Nc1ccc(-c2ccnc(C(F)F)c2)c(-c2nnn[nH]2)c1)C1(c2ccc(F)c(F)c2)CC1 [Example 206, N-{4-[2-(difluoromethyl)pyridin-4-yl]-3-(1H-tetrazol-5-yl)phenyl}-1-(3,4-difluorophenyl) cyclopropane-carboxamide]
131 nM | 78 nM | Cc1cc(-c2ccc(NC(=O)C3(c4cccc(Cl)c4)CC3)cc2-c2nnn[nH]2)ccn1 [Example 210, 1-(3-chlorophenyl)-N-[4-(2-methylpyridin-4-yl)-3-(1H-tetrazol-5-yl)phenyl] cyclopropane-carboxamide]
86.8 nM |  | CCOc1ccc(-c2ncc(NC(=O)C3(c4ccc(C(F)(F)F)cc4F)CC3)cc2-c2nnn[nH]2)cn1 [Example 219, N-[6′-ethoxy-3-(1H-tetrazol-5-yl)-2,3′-bipyridin-5-yl]-1-[2-fluoro-4-(trifluoromethyl)phenyl] cyclopropane-carboxamide]
 | 160 nM | O=C(Nc1cc(-c2nnn[nH]2)c(-c2ccc(C(F)(F)F)nc2)cc1O)C1(c2ccc(Cl)cc2F)CC1 [Example 221, 1-(4-chloro-2-fluorophenyl)-N-{2-hydroxy-5-(1H-tetrazol-5-yl)-4-[6-(trifluoromethyl)pyridin-3-yl]phenyl} cyclopropane-carboxamide]
 | 84 nM | O=C(Nc1cc(-c2nnn[nH]2)c(-c2ccc(C(F)(F)F)nc2)cc1O)C1(c2cc(F)cc(Cl)c2)CC1 [Example 223, 1-(3-chloro-5-fluorophenyl)-N-{2-hydroxy-5-(1H-tetrazol-5-yl)-4-[6-(trifluoromethyl)pyridin-3-yl]phenyl} cyclopropane-carboxamide]
 | 88.9 nM | O=C(Nc1cc(-c2nnn[nH]2)c(-c2ccc(C(F)(F)F)nc2)cc1O)C1(c2cccc(Cl)c2F)CC1 [Example 225, 1-(3-chloro-2-fluorophenyl)-N-{2-hydroxy-5-(1H-tetrazol-5-yl)-4-[6-(trifluoromethyl)pyridin-3-yl]phenyl} cyclopropane-carboxamide]
 | 105 nM | O=C(Nc1cc(-c2nnn[nH]2)c(-c2ccc(C(F)(F)F)nc2)cc1O)C1(c2ccc(Cl)cc2)CC1 [Example 226, 1-(4-chlorophenyl)-N-{2-hydroxy-5-(1H-tetrazol-5-yl)-4-[6-(trifluoromethyl)pyridin-3-yl]phenyl} cyclopropane-carboxamide]
 | 88.2 nM | O=C(Nc1cc(-c2nnn[nH]2)c(-c2ccc(C(F)(F)F)nc2)cc1O)C1(c2ccc(F)cc2F)CC1 [Example 228, 1-(2,4-Difluorophenyl)-N-{2-hydroxy-5-(1H-tetrazol-5-yl)-4-[6-(trifluoromethyl)pyridin-3-yl]phenyl} cyclopropane-carboxamide]
